From patent US20090221581A1, “Methods of treating pain” (priority 2005, published 2009) come the findings set out here.

One assay addresses T1, CDK9/CycT (Homo sapiens, UniProt P50750).
T1 construct: host or cells: Sf9 insect cells, baculovirus
The experiment in a line: In vitro kinase inhibition assay, CDK9/CycT. Format: biochemical. How it is done: (§1) In vitro kinase inhibition assays may be performed according to the following protocol:
(§2) Compounds are used as 1×10^−02 M stock solutions in 100% DMSO, 100 μl each in column 2 of three 96-well V-shaped microtiter plates (in the following, said plates are referred to as “master plates”).
(§3) Subsequently, the 1×10^−02 M stock solutions in column 2 of the master plates are subjected to a serial, semi-logarithmic dilution using 100% DMSO as a solvent, resulting in 10 different concentrations, the dilution endpoint being 3×10^−07 M/100% DMSO in column 12. Column 1 and 7 are filled with 100% DMSO as controls. […]
(§4) For the determination of inhibitory profiles, the following protein kinases were used: CDK2/CycA, CDK4/CycD1, CDK6/CycD1 and CDK9/CycT. […] The purity of each kinase is determined by SDS-PAGE/silver staining and the identity of each kinase is verified by western blot analysis with kinase specific antibodies or by mass spectroscopy. […]
(§5) Reaction mixtures are incubated at 30° C. for 80 minutes. […] Incorporation of ^33P is determined with a microplate scintillation counter (Microbeta, Wallac). […]
(§6) The median value of the counts in column 1 (n=8) of each assay plate is defined as “low control”. This value reflects unspecific binding of radioactivity to the plate in the absence of a protein kinase but in the presence of the substrate. […]

For another assay, the target named is T2, CDK6/CycD1 (Homo sapiens, UniProt Q00534).
T2 construct: host or cells: Sf9 insect cells, baculovirus
T2 sequence (Q00534 whole entry): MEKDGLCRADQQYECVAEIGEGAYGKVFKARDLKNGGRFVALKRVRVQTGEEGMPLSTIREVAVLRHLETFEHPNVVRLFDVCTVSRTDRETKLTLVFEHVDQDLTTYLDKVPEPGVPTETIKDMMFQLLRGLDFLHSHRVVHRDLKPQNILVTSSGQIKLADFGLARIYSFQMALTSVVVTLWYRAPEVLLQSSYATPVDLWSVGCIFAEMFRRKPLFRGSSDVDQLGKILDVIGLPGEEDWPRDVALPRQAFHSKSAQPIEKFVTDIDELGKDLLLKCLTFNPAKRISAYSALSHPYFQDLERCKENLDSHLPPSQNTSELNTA
T2 sequence (P24385 whole entry partner): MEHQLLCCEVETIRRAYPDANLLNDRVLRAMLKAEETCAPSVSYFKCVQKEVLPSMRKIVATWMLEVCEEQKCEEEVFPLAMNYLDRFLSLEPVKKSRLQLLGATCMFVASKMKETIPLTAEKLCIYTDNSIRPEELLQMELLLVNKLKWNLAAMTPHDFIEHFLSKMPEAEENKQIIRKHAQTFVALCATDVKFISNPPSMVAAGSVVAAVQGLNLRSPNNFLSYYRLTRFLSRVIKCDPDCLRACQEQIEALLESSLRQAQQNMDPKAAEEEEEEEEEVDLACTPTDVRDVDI
The experiment in a line: In vitro kinase inhibition assay, CDK6/CycD1. Type of assay: biochemical. How it is done: as §1, §2, §3, §4, §5, §6

Another assay addresses T3, CDK4/CycD1 (Homo sapiens, UniProt P11802).
T3 construct: host or cells: Sf9 insect cells, baculovirus
The experiment in a line: In vitro kinase inhibition assay, CDK4/CycD1. Format: biochemical. The method, then: as §1, §2, §3, §4, §5, §6

The test system of another assay is carrageenan-treated mice. The assay is described as follows: Carrageenan assay, paw edema. Type of assay: in vivo. To be noted: 30 mg/kg i.p. 30 min prior to carrageenan. From the text:
The model of carrageenan-induced paw edema constitutes a standard laboratory assay used to predict anti-inflammatory activity of therapeutically active compounds and reduction of inflammation-induced pain perception achieved by administration of therapeutically active compounds.
The basic measurement constitutes in the measurement of edema size and of mechanical as well as thermal hypersensitivity in response to irritants, such as carrageenan.
Inflammation and subsequent inflammatory pain is induced by subcutaneous injection of 25 μl of 1% carrageenan (in saline) into the hind paw (ipsi-lateral paw) of mice. Groups of 10 mice each received compound A, 30 mg/kg body weight, vehicle (DMA/Labrafil; 10:90) and saline (physiol. NaCl) by i.p. injection 30 min prior to carrageenan injection.
Paw edema induced by carrageenan injection was detected by increased paw size measured from dorsal to plantar at the metatarsus region of the injected (ipsi-lateral) paws. Sizes of ipsi- and contra-lateral paws (see FIG. 6, paw size [mm]) served as surrogate markers for inflammation and were measured at several time points after carrageenan injection: 1 h before injection (−1), immediately after injection, 1 h (1), 2 h (2), 4 h (4), 5 h (5), 6 h (6), 7 h (7), 24 h (24), 48 h (48), 72 h (72), 96 h (96), and 98 h (98) after injection. […]
On the technique in general: Carrageenan injected into the paw causes an acute inflammation.

T1 sequence (P50750 whole entry): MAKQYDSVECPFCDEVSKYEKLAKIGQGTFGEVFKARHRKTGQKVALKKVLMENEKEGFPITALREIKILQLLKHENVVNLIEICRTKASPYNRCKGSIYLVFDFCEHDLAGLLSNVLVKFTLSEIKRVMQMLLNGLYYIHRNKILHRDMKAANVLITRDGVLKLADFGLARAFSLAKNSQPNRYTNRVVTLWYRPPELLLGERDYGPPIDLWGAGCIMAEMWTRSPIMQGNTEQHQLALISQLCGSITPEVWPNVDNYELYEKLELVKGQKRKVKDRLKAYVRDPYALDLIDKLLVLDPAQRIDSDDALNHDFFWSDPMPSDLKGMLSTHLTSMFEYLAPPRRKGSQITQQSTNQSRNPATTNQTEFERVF
T1 sequence (O60563 whole entry partner): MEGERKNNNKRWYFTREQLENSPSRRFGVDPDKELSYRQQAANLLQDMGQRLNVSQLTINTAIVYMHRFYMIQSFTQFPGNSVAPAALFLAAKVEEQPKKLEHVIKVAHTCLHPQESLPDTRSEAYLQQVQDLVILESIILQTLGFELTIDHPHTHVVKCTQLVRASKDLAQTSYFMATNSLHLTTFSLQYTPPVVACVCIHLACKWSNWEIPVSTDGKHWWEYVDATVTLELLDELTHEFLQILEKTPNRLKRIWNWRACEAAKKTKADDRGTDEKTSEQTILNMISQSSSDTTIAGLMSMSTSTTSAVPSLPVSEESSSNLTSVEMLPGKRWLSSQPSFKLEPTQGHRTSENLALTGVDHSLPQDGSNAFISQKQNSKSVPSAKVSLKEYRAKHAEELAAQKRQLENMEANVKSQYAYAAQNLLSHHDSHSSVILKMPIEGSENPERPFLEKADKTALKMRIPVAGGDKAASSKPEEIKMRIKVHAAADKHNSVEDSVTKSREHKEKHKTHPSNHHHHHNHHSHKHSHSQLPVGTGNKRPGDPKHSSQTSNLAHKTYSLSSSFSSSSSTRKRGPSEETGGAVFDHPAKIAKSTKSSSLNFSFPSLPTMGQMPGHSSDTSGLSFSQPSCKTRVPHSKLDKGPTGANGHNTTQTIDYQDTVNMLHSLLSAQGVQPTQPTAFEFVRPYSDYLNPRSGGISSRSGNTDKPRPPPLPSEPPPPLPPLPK
T3 sequence (P11802 whole entry): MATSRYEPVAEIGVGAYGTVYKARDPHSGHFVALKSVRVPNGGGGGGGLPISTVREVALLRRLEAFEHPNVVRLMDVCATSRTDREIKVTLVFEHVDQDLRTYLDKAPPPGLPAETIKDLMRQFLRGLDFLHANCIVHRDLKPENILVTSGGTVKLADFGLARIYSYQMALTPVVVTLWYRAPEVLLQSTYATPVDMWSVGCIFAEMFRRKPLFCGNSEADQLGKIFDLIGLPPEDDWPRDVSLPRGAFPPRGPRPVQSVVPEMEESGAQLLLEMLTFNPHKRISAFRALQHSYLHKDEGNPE
T3 sequence (P24385 whole entry partner): as the sequence (P24385 whole entry partner) above

As a reminder, the IC50 is the concentration that inhibits the measured activity by half. Read a high IC50 as lower potency. For `COc1ccccc1-c1cc(Nc2cccc(S(N)(=O)=O)c2)ncn1` [Compound A], the half-maximal inhibitory concentration (IC50) on CDK9/CycT (CDK9/CycT) was determined as 630 nM; at CDK6/CycD1, 1910 nM; at CDK4/CycD1, 2790 nM. Further, the “specificity for CDK9 over other CDKs” value on CDK9/CycT (from IC50 values of Table 1) was “high specificity for CDK9”. The “increase in paw size” value is 8% with carrageenan-treated mice (24 h after carrageenan injection (control mice 30%)) and 10% with carrageenan-treated mice (within the first hour after carrageenan injection).
